According to the supplement of paper PMC10307832:

Columns and labels:
Experiment in all cases: relative viability (nuclei count vs DMSO), 5 days (fraction); higher = more cells survive
4EGI-1 + Decitabine = compound: O=C(O)C(Cc1ccccc1[N+](=O)[O-])=NNc1nc(-c2ccc(Cl)c(Cl)c2)cs1 (mixture of isomers) [4EGI-1] + Nc1ncn([C@H]2C[C@H](O)[C@@H](CO)O2)c(=O)n1 [Decitabine] (partner 2 µM)
In short: (§1)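 The day after seeding in 1536-well plates, lung cancer cell lines were treated by pin tool with a single drug, or with a fixed anchor-drug dose together with five library-drug doses (not always all listed) in √10 steps. After 5 days, a combined fix-and-stain solution (final 0.05% Triton X-100, 1% formaldehyde, 1 ug/ml Hoechst) was added. Nuclei counted on 4× images gave relative viability as treated counts over vehicle counts, reported as the median of duplicate plates.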

4EGI-1 + Tozasertib = compound: O=C(O)C(Cc1ccccc1[N+](=O)[O-])=NNc1nc(-c2ccc(Cl)c(Cl)c2)cs1 (mixture of isomers) [4EGI-1] + Cc1cc(Nc2cc(N3CCN(C)CC3)nc(Sc3ccc(NC(=O)C4CC4)cc3)n2)n[nH]1 [Tozasertib] (partner 0.1 µM)
In short: as §1

XMD8-85 + Lapatinib = compound: CN1CCN(CC1)C2=CC(=C(C=C2)NC3=NC=C4C(=N3)N(C5=CC=CC=C5C(=O)N4C)C)OC [XMD8-85] + CS(=O)(=O)CCNCc1ccc(-c2ccc3ncnc(Nc4ccc(OCc5cccc(F)c5)c(Cl)c4)c3c2)o1 [Lapatinib] (partner 2 µM)
In short: as §1

XMD8-85 + Olaparib = compound: CN1CCN(CC1)C2=CC(=C(C=C2)NC3=NC=C4C(=N3)N(C5=CC=CC=C5C(=O)N4C)C)OC [XMD8-85] + O=C(c1cc(Cc2n[nH]c(=O)c3ccccc23)ccc1F)N1CCN(C(=O)C2CC2)CC1 [Olaparib] (partner 8 µM)
In short: as §1

Row | Cell Line | relative viability (4EGI-1 + Decitabine; first compound 0.5 µM) | relative viability (4EGI-1 + Decitabine; first compound 5 µM) | relative viability (4EGI-1 + Decitabine; first compound 15.81 µM) | relative viability (4EGI-1 + Decitabine; first compound 50 µM) | relative viability (4EGI-1 + Tozasertib; first compound 0.5 µM) | relative viability (4EGI-1 + Tozasertib; first compound 5 µM) | relative viability (4EGI-1 + Tozasertib; first compound 50 µM) | relative viability (XMD8-85 + Lapatinib; first compound 0.08 µM) | relative viability (XMD8-85 + Lapatinib; first compound 0.253 µM) | relative viability (XMD8-85 + Lapatinib; first compound 0.8 µM) | relative viability (XMD8-85 + Lapatinib; first compound 2.53 µM) | relative viability (XMD8-85 + Lapatinib; first compound 8 µM) | relative viability (XMD8-85 + Olaparib; first compound 0.08 µM) | relative viability (XMD8-85 + Olaparib; first compound 0.253 µM) | relative viability (XMD8-85 + Olaparib; first compound 0.8 µM) | relative viability (XMD8-85 + Olaparib; first compound 2.53 µM) | relative viability (XMD8-85 + Olaparib; first compound 8 µM) | relative viability (4EGI-1 + Decitabine; first compound 1.581 µM) | relative viability (4EGI-1 + Tozasertib; first compound 1.581 µM) | relative viability (4EGI-1 + Tozasertib; first compound 15.81 µM)
1 | PC-14 | 0.227 | 0.222 | 0.13 | 0.0662 | 0.584 | 0.57 | 0.28 | 0.32 | 0.398 | 0.276 | 0.38 | 0.268 | 0.253 | 0.213 | 0.229 | 0.237 | 0.14 |  |  | 
2 | NCI-H520 | 0.568 | 0.499 | 0.562 | 0.25 | 0.47 | 0.499 | 0.371 | 0.825 | 0.749 | 1.03 | 0.906 | 0.756 | 0.343 | 0.366 | 0.293 | 0.305 | 0.236 | 0.499 | 0.496 | 0.385
3 | NCI-H2342 | 0.757 | 0.742 | 0.737 | 0.731 | 0.549 | 0.655 | 0.511 |  |  |  |  |  | 0.421 | 0.466 | 0.359 | 0.487 | 0.408 | 0.704 | 0.598 | 0.544
4 | NCI-H3122 | 0.452 | 0.454 | 0.521 | 0.351 | 0.418 | 0.387 | 0.116 | 1.12 | 1.01 | 1.04 | 1.09 | 0.965 | 0.574 | 0.673 | 0.691 | 0.762 | 0.676 | 0.487 |  | 0.334
5 | HCC-78 | 0.768 | 0.729 | 0.621 | 0.725 | 0.538 | 0.336 | 0.289 | 0.84 |  | 0.751 | 0.565 | 0.223 | 0.916 | 0.843 | 0.99 | 0.814 | 0.775 |  |  | 1.56
6 | NCI-H1623 |  |  |  |  | 0.481 | 0.535 | 0.33 |  |  |  |  |  |  |  |  |  |  |  | 0.421 | 0.36
7 | NCI-H2228 |  |  |  |  | 0.276 | 0.248 | 0.134 | 0.827 | 0.93 | 1.14 |  | 0.549 | 0.629 | 0.338 | 0.649 | 0.655 | 0.331 |  | 0.273 | 0.285
8 | SW 900 | 0.447 | 0.464 | 0.396 | 0.283 | 0.688 | 0.551 | 0.291 |  |  |  |  |  | 0.824 | 0.705 | 1.15 | 0.786 | 0.376 | 0.406 |  | 0.459
9 | NCI-H1299 |  |  |  |  |  |  |  | 1 | 0.985 | 0.977 | 0.974 | 0.67 | 1.02 | 1 | 0.97 | 0.892 | 0.578 |  |  | 
10 | NCI-H1563 |  |  |  |  |  |  |  | 1.04 | 0.87 | 1.01 | 0.822 | 0.7 |  |  |  |  |  |  |  | 
11 | NCI-H1648 | 0.462 | 0.518 | 0.537 | 0.416 | 0.604 | 0.532 | 0.314 |  |  |  |  |  | 0.857 | 1.14 | 0.919 | 0.482 | 0.861 | 0.501 | 0.623 | 0.466
12 | CAL-12T |  |  |  |  | 0.354 | 0.315 | 0.21 | 0.626 |  | 0.679 | 0.678 | 0.604 | 0.704 | 0.721 | 0.776 | 0.628 | 0.583 |  | 0.264 | 0.315
13 | ChaGo-K-1 | 0.538 | 0.523 | 0.479 | 0.352 | 0.209 | 0.212 | 0.208 |  |  |  |  |  | 0.409 | 0.43 | 0.409 | 0.433 | 0.347 | 0.511 | 0.208 | 0.209
14 | Calu-6 |  |  |  |  |  |  |  | 1.02 | 1.09 | 1.11 | 1.03 | 0.899 | 0.621 | 0.574 | 0.596 | 0.558 | 0.395 |  |  | 
15 | IA-LM |  |  |  |  |  |  |  | 0.847 | 0.59 | 0.611 | 0.455 | 0.16 | 0.862 | 0.885 | 0.836 | 1.07 | 0.207 |  |  | 
16 | EBC-1 |  |  |  |  |  |  |  | 0.2 | 0.21 | 0.174 | 0.184 | 0.172 | 0.649 | 0.693 | 0.679 | 0.567 | 0.346 |  |  | 
17 | NCI-H441 | 0.262 | 0.251 | 0.244 | 0.18 | 0.688 | 0.574 | 0.284 |  |  |  |  |  | 0.405 | 0.553 | 0.421 | 0.538 | 0.371 | 0.258 | 0.538 | 0.541
18 | A549 | 0.345 | 0.259 | 0.177 | 0.0347 |  |  |  | 1.08 | 0.974 | 1.06 | 1.03 | 0.869 | 0.192 | 0.371 | 0.306 | 0.234 | 0.227 | 0.377 |  | 
19 | LCLC-103H | 0.778 | 0.688 | 0.666 | 0.458 | 0.557 | 0.537 | 0.394 |  |  |  |  |  | 0.84 | 0.759 | 0.768 | 0.793 | 0.665 | 0.733 | 0.479 | 0.434
20 | NCI-H1703 |  |  |  |  |  |  |  |  | 1.22 | 1.25 | 1.26 | 0.841 | 0.308 |  | 0.427 | 0.42 | 0.312 |  |  | 
21 | NCI-H522 | 0.666 | 0.693 | 0.679 | 0.63 | 0.558 | 0.595 | 0.457 |  |  |  |  |  | 0.699 | 0.632 | 0.615 | 0.537 | 0.568 | 0.63 | 0.491 | 0.558
